These results are taken from US7803825B2, “Aminoalkylazole derivatives as histamine-3 antagonists” (Wyeth LLC, priority 2007, dated 2010).

In this test the target is T1, histamine-3 (H3) receptor (Homo sapiens, UniProt Q9Y5N1).
T1 construct: expressed in transfected cells; host or cells: HEK293T
Nature of the test: Methyl Histamine Binding in Human Histamine-3 Receptor Cell Line. The note with it: membranes of stably transfected HEK293T cells, radioligand 1 nM, Ki from IC50 by Cheng-Prusoff. The protocol:
Evaluation of Methyl Histamine Binding in Human Histamine-3 Receptor Cell Line
The affinity of test compounds for the histamine-3 (H3) receptor is evaluated in the following manner. Stably transfected HEK293T cells are grown in DMEM containing 10% heat inactivated FBS and G-418 (500 ug/ml). Cells are scraped from the plate, transferred to centrifuge tubes, washed one time in PBS by centrifugation in a Sorvall RT7 Plus centrifuge (2000 rpm 10 minutes, 4° C.). The resulting pellets are stored at 80° C. until ready for use. Cells are re-suspended in buffer (50 mM Tris pH=7.5) and placed in a Dounce homogenizer, douncing ten times to homogenize cells. The homogenate is spun down by centrifugation (Sorvall RT7 Plus, 1800 rpm 10 minutes, 4° C.). The supernatant is placed in a Corex tube and spun down by centrifugation (Sorvall RC 5c Plus, 17,000 rpm 20 minutes, 4° C.). The pellet is resuspended in buffer (50 mM Tris, pH 7.5). Protein concentration (ug/ul) is determined using the Micro-BCA Protein Determination. The binding assay is set up in a 96 well microtiter plate in a total volume of 250 uL. Non-specific binding is determined in the presence of 10 uM clobenpropit. The final radioligand concentration is 1 nM. The test compound is serially diluted using the Beckman Biomek2000 to a final approximate range of 100 uM to 100 pM. Membranes are suspended in buffer, homogenized in 2 bursts of ten seconds using a Vitris mechanical homogenizer set at power setting 5. Ten μg of membranes are added to each well. Following a one hour incubation at 30° C., the reaction is terminated by the addition of ice cold buffer and rapid filtration with a Packard Filtermate Harvester through a GF/B filter pre-soaked with 1% PEI for one hour. The plate is dried for one hour at 37° C. and 60 μL Microscint Scintillant is added to each well. The CPM per well is measured on a Packard Top Count NXT. Ki values are determined in nM. The Ki is calculated from the IC50 (i.e. the concentration of competing ligand which displaces 50% of the specific binding of the radioligand). CPM values are expressed as % specific binding and plotted vs compound concentration. A curve is fitted using a four-parameter logistic fit and the IC50 value is determined. The Ki is calculated from this using the Cheng-Prusoff equation: […]=IC50/1+(L/Kd) where L=concentration of free radioligand used in the assay, and Kd is the dissociation constant of the radioligand for the receptor. L is determined for each experiment by counting an aliquot of the diluted radioligand (corresponding to that added to each well) and the Kd has previously been determined under identical conditions for this cell line/radioligand.

T1 sequence (Q9Y5N1 whole entry): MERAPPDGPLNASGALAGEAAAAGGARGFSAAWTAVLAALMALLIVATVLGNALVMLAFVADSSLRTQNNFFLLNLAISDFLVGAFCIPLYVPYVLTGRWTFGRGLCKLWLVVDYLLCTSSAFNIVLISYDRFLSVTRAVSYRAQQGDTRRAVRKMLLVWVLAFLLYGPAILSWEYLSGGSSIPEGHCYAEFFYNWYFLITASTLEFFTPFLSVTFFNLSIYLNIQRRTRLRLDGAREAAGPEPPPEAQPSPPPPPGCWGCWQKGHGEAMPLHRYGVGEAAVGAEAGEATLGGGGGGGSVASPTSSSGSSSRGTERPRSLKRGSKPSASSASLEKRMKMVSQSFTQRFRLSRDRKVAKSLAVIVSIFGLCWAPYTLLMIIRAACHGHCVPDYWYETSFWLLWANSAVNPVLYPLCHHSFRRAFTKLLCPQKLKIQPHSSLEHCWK

`c1ccc2c(c1)ncn2Cc1ccc(-c2nc(CN3CCCCC3)co2)cc1` [Example 7, 1-{4-[4-(piperidin-1-ylmethyl)-1,3-oxazol-2-yl]benzyl}-1H-benzimidazole]: the inhibition constant (Ki) (usually a measure of affinity in units of concentration, obtained from inhibition or displacement) was no more than 10 nM. In the case of `CCN(C)Cc1cnc(-c2ccc(Cn3cnc4ccccc43)cc2)o1` [Example 112], the inhibition constant Ki was greater than 100 nM.

`CC1CCCN(Cc2coc(-c3ccc(Cn4cnc5ccccc54)cc3)n2)C1` (stereo not shown) [Example 16] came in with a Ki of no more than 10 nM. The compound `CC1CCCCN1Cc1coc(-c2ccc(Cn3cnc4ccccc43)cc2)n1` (stereo not shown) [Example 15, 1-(4-{4-[(2-methylpiperidin-1-yl)methyl]-1,3-oxazol-2-yl}benzyl)-1H-benzimidazole] had a Ki of 50.1 to 100 nM. In turn, `c1ccc(-c2nc3ccccc3n2Cc2ccc(-c3nc(CN4CCCCCC4)co3)cc2)cc1` [Example 121, 1-{4-[4-(azepan-1-ylmethyl)-1,3-oxazol-2-yl]benzyl}-2-phenyl-1H-benzimidazole] returned a Ki of 25.1 to 50 nM. The result for `c1ccc2c(c1)cnn2Cc1ccc(-c2nc(CN3CCCC3)co2)cc1` [Example 88, 1-{4-[4-(pyrrolidin-1-ylmethyl)-1,3-oxazol-2-yl]benzyl}-1H-indazole] reads 50.1 to 100 nM.

Regarding `CC1CCCN1Cc1csc(-c2ccc(Cn3cnc4ccccc43)cc2)n1` (stereo not shown) [Example 72, 1-(4-{4-[(2-methylpyrrolidin-1-yl)methyl]-1,3-thiazol-2-yl}benzyl)-1H-benzimidazole], the Ki was no more than 10 nM. Regarding `C[C@H]1CCCN1Cc1cnc(-c2ccc(Cn3cnc4ccccc43)cc2)o1` [Example 106, 1-[4-(5-{[(2S)-2-methylpyrrolidin-1-yl]methyl}-1,3-oxazol-2-yl)benzyl]-1H-benzimidazole], the inhibition constant Ki is no more than 10 nM. Compound `CCN(C)Cc1coc(-c2ccc(-n3cnc4ccccc43)cc2)n1` [Example 39] had a Ki of 10.1 to 25 nM. The compound `FC(F)(F)c1nc2ccccc2n1Cc1ccc(-c2nc(CN3CCCCC3)co2)cc1` [Example 122, 1-{4-[4-(piperidin-1-ylmethyl)-1,3-oxazol-2-yl]benzyl}-2-(trifluoromethyl)-1H-benzimidazole] yielded a Ki of 10.1 to 25 nM. As for `c1ccc2c(c1)nc(-c1ccc(-c3nc(CN4CCCC4)co3)cc1)n2CC1CCC1` [Example 58, 1-(cyclobutylmethyl)-2-{4-[4-(pyrrolidin-1-ylmethyl)-1,3-oxazol-2-yl]phenyl}-1H-benzimidazole], the Ki was in the range of 10.1 to 25 nM. As to `c1ccc2c(c1)ncn2-c1ccc(-c2nc(CN3CCCC3)co2)cc1` [Example 36, 1-{4-[4-(pyrrolidin-1-ylmethyl)-1,3-oxazol-2-yl]phenyl}-1H-benzimidazole], the Ki is no more than 10 nM. Compound `Cc1oc(-c2ccc(Cn3cnc4ccccc43)cc2)nc1CN1CCCC1` [Example 28, 1-{4-[5-methyl-4-(pyrrolidin-1-ylmethyl)-1,3-oxazol-2-yl]benzyl}-1H-benzimidazole] yielded a Ki of no more than 10 nM.
